Tested on: AN3CA
Experiment: Cell viability assay (CellTiter-Glo)
Format: cell-based
Settings: Homo sapiens, AN3-CA, 120 h, read-out: Cell viability assay EC50
Description: Cell Culture and Viability Assay
(§1) analysis, cells were plated on day 0 into white 384-well cell culture plates (Greiner Bio-One) using a
(§2) Multidrop reagent dispenser (Thermo) at cell numbers that ensure linear and optimal luminescent
(§3) signal intensity (AN3-CA: 800 cells/well; BT-474: 400 cells/well; Dan-G: 400 cells/well; HPAF-II: 400
(§4) cells/well). Then the cells were incubated for 24 h in a humidified atmosphere at 37 °C/5 % CO2. The
(§5) cells were treated with inhibitors in serial dilutions ranging from 30 µM down to 0.1 nM using an Echo
(§6) 520 acoustic liquid handler (Labcyte Inc.). Cell viability was analysed on day 5 using the CellTiter-Glo
(§7) assay (Promega) as per manufacturer’s instructions. Luminescence signal was recorded by an EnVision
(§8) Multilabel 2104 Plate Reader (PerkinElmer) with 500 ms integration time. All data were normalized to
(§9) the plate positive control (30 µM staurosporine) and negative control (DMSO). Finally, the data was
(§10) processed with the Quattro Software Suite using a four parameter logistic model. As a quality control,
(§11) the Z’-factor was calculated from 16 positive and negative control values. Only assay results showing
(§12) a Z’-factor ≥ 0.5 were used for further analysis. All experimental points were measured in duplicates
(§13) for each plate and were replicated in at least three times.

SMILES	EC50
CC(C)NC[C@@H](C(=O)N1CCN(c2ncnc3c2[C@H](C)C[C@H]3O)CC1)c1ccc(Cl)cc1 [Ipatasertib, reference compound]	925 ± 457 nM

Same assay, conditions: Homo sapiens, AN3-CA, 120 h; AN3CA (endometrium), day 5; read-out: Cell viability assay EC50

SMILES	EC50
C=CC(=O)Nc1cc2c(cc1Cl)[nH]c(=O)n2C1CCN(Cc2ccc(-c3nc4cc[nH]c(=O)c4cc3-c3ccccc3)cc2)CC1 [24a]	159 ± 70 nM
COc1cccc2c1C(=O)c1c(O)c3c(c(O)c1C2=O)C[C@@](O)(C(=O)CO)C[C@@H]3O[C@H]1C[C@H](N)[C@H](O)[C@H](C)O1 [Doxorubicin, reference compound]	30 ± 9 nM
C=CC(=O)Nc1ccc(N2CCN(Cc3ccc(-c4nc5cc[nH]c(=O)c5cc4-c4ccccc4)cc3)CC2)cc1 [compound 31]	3610 ± 1290 nM

Target: full-length Akt (Akt^wt) (Homo sapiens, UniProt P31749)
Sequence (P31749 whole entry): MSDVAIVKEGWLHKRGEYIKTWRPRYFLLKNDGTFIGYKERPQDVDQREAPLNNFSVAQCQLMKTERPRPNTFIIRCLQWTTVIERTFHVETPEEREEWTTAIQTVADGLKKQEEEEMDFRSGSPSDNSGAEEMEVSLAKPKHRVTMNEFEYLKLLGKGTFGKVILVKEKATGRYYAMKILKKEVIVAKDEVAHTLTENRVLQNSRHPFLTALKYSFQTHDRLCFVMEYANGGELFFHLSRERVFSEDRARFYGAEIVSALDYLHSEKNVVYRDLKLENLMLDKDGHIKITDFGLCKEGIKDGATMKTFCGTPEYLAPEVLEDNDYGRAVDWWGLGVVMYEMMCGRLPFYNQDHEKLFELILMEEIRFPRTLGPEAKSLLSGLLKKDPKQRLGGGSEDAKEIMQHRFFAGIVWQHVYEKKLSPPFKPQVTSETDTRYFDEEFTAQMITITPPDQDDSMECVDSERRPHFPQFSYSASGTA
Experiment: HTRF KinEASE activity-based assay, IC50 determination
Format: biochemical
Settings: HTRF KinEASE
Description: The biochemical inhibitory activity (IC50) was determined with the HTRF KinEASE assay from Cisbio as
previously described.1 All reagents for HTRF experiments were purchased from Cisbio Bioassays,
France. The measurements were analyzed using the Quattro Software Suite for IC50-determination.
Time-dependent IC50-measurements were performed as described. Briefly, IC50 values were
determined for twelve different incubation times and afterwards plotted versus accordingly. Data was
analyzed according to literature procedure.2

SMILES	IC50
C=CC(=O)Nc1cc2c(cc1Cl)[nH]c(=O)n2C1CCN(Cc2ccc(-c3nc4cc[nH]c(=O)c4cc3-c3ccccc3)cc2)CC1 [24a]	1.2 ± 0.3 nM

Tested on: ZR-75-1
Experiment: Cell viability assay (CellTiter-Glo)
Format: cell-based
Settings: Homo sapiens, 120 h; ZR-75-1 (breast), day 5; read-out: Cell viability assay EC50
Description: Cell Culture and Viability Assay
as §1, §2, §3, §4, §5, §6, §7, §8, §9, §10, §11, §12, §13

SMILES	EC50
C=CC(=O)Nc1cc2c(cc1Cl)[nH]c(=O)n2C1CCN(Cc2ccc(-c3nc4cc[nH]c(=O)c4cc3-c3ccccc3)cc2)CC1 [24a]	2 nM
COc1cccc2c1C(=O)c1c(O)c3c(c(O)c1C2=O)C[C@@](O)(C(=O)CO)C[C@@H]3O[C@H]1C[C@H](N)[C@H](O)[C@H](C)O1 [Doxorubicin, reference compound]	100 ± 26 nM
NC1(c2ccc(-c3nc4ccn5c(=O)[nH]nc5c4cc3-c3ccccc3)cc2)CCC1 [MK-2206, reference compound]	63 ± 21 nM
C=CC(=O)Nc1ccc(N2CCN(Cc3ccc(-c4nc5cc[nH]c(=O)c5cc4-c4ccccc4)cc3)CC2)cc1 [compound 31]	116 ± 16 nM

Same assay, conditions: Homo sapiens, ZR-75-1, 120 h, read-out: Cell viability assay EC50

SMILES	EC50
CC(C)NC[C@@H](C(=O)N1CCN(c2ncnc3c2[C@H](C)C[C@H]3O)CC1)c1ccc(Cl)cc1 [Ipatasertib, reference compound]	219 ± 83 nM

Tested on: MCF-7
Experiment: Cell viability assay (CellTiter-Glo)
Format: cell-based
Settings: Homo sapiens, MCF7, 120 h, read-out: Cell viability assay EC50
Description: Cell Culture and Viability Assay
as §1, §2, §3, §4, §5, §6, §7, §8, §9, §10, §11, §12, §13

SMILES	EC50
CC(C)NC[C@@H](C(=O)N1CCN(c2ncnc3c2[C@H](C)C[C@H]3O)CC1)c1ccc(Cl)cc1 [Ipatasertib, reference compound]	5040 ± 1830 nM
C=CC(=O)Nc1ccc2[nH]c(=O)n(C3CCN(Cc4ccc(-c5nc6cc[nH]c(=O)c6cc5-c5ccccc5)cc4)CC3)c2c1 [compound 1, borussertib]	277 ± 90 nM

Same assay, conditions: Homo sapiens, MCF7, 120 h; MCF-7 (breast), day 5; read-out: Cell viability assay EC50

SMILES	EC50
C=CC(=O)Nc1cc2c(cc1Cl)[nH]c(=O)n2C1CCN(Cc2ccc(-c3nc4cc[nH]c(=O)c4cc3-c3ccccc3)cc2)CC1 [24a]	138 ± 81 nM
NC1(C(=O)N[C@@H](CCO)c2ccc(Cl)cc2)CCN(c2ncnc3[nH]ccc23)CC1 [Capivasertib, reference compound]	555 nM
COc1cccc2c1C(=O)c1c(O)c3c(c(O)c1C2=O)C[C@@](O)(C(=O)CO)C[C@@H]3O[C@H]1C[C@H](N)[C@H](O)[C@H](C)O1 [Doxorubicin, reference compound]	153 ± 9 nM
C=CC(=O)Nc1ccc(N2CCN(Cc3ccc(-c4nc5cc[nH]c(=O)c5cc4-c4ccccc4)cc3)CC2)cc1 [compound 31]	1220 ± 58 nM

Tested on: T47D
Experiment: Cell viability assay (CellTiter-Glo)
Format: cell-based
Settings: Homo sapiens, 120 h; T47D (breast), day 5; read-out: Cell viability assay EC50
Description: Cell Culture and Viability Assay
as §1, §2, §3, §4, §5, §6, §7, §8, §9, §10, §11, §12, §13

SMILES	EC50
C=CC(=O)Nc1cc2c(cc1Cl)[nH]c(=O)n2C1CCN(Cc2ccc(-c3nc4cc[nH]c(=O)c4cc3-c3ccccc3)cc2)CC1 [24a]	25 ± 7 nM
COc1cccc2c1C(=O)c1c(O)c3c(c(O)c1C2=O)C[C@@](O)(C(=O)CO)C[C@@H]3O[C@H]1C[C@H](N)[C@H](O)[C@H](C)O1 [Doxorubicin, reference compound]	127 ± 40 nM
C=CC(=O)Nc1ccc(N2CCN(Cc3ccc(-c4nc5cc[nH]c(=O)c5cc4-c4ccccc4)cc3)CC2)cc1 [compound 31]	832 ± 81 nM

Same assay, conditions: Homo sapiens, T47D, 120 h, read-out: Cell viability assay EC50

SMILES	EC50
CC(C)NC[C@@H](C(=O)N1CCN(c2ncnc3c2[C@H](C)C[C@H]3O)CC1)c1ccc(Cl)cc1 [Ipatasertib, reference compound]	443 ± 6 nM

Tested on: not listed separately
Experiment: Phase I metabolic stability assay
Settings: human, liver microsomes
Description: (§14) For this purpose, we used a microsomal stability assay that is a good predictor for phase I metabolic stability.[50]
(§15) Metabolic stability under oxidative conditions was determined by LCMS-based measuring of
(§16) degradation of compounds at 3 µM in human and murine liver microsomes over 60 minutes at 37 °C
(§17) Calculating the compound half-life t1/2, the in vitro intrinsic clearance CLint is

SMILES	half-life at 1 h, 3 µM	microsomal CLint at 3 µM
NC1(C(=O)N[C@@H](CCO)c2ccc(Cl)cc2)CCN(c2ncnc3[nH]ccc23)CC1 [Capivasertib, reference compound]	0.55 h	14 µL/min/mg
CC(C)NC[C@@H](C(=O)N1CCN(c2ncnc3c2[C@H](C)C[C@H]3O)CC1)c1ccc(Cl)cc1 [Ipatasertib, reference compound]	0.65 h	12 µL/min/mg
NC1(c2ccc(-c3nc4ccn5c(=O)[nH]nc5c4cc3-c3ccccc3)cc2)CCC1 [MK-2206, reference compound]	5.78 h	1 µL/min/mg

Same assay, conditions: human, microsomes

SMILES	half-life at 1 h, 3 µM	microsomal CLint at 3 µM
C=CC(=O)Nc1ccc2[nH]c(=O)n(C3CCN(Cc4ccc(-c5nc6cc[nH]c(=O)c6cc5-c5ccccc5)cc4)CC3)c2c1 [compound 1, borussertib]	1.65 h	5 µL/min/mg

Tested on: BT-474
Experiment: Cell viability assay (CellTiter-Glo)
Format: cell-based
Settings: Homo sapiens, 120 h; BT-474 (breast), day 5; read-out: Cell viability assay EC50
Description: Cell Culture and Viability Assay
as §1, §2, §3, §4, §5, §6, §7, §8, §9, §10, §11, §12, §13

SMILES	EC50
C=CC(=O)Nc1cc2c(cc1Cl)[nH]c(=O)n2C1CCN(Cc2ccc(-c3nc4cc[nH]c(=O)c4cc3-c3ccccc3)cc2)CC1 [24a]	259 ± 68 nM
NC1(C(=O)N[C@@H](CCO)c2ccc(Cl)cc2)CCN(c2ncnc3[nH]ccc23)CC1 [Capivasertib, reference compound]	1600 ± 450 nM
COc1cccc2c1C(=O)c1c(O)c3c(c(O)c1C2=O)C[C@@](O)(C(=O)CO)C[C@@H]3O[C@H]1C[C@H](N)[C@H](O)[C@H](C)O1 [Doxorubicin, reference compound]	623 ± 134 nM
NC1(c2ccc(-c3nc4ccn5c(=O)[nH]nc5c4cc3-c3ccccc3)cc2)CCC1 [MK-2206, reference compound]	1680 ± 316 nM
C=CC(=O)Nc1ccc(N2CCN(Cc3ccc(-c4nc5cc[nH]c(=O)c5cc4-c4ccccc4)cc3)CC2)cc1 [compound 31]	4620 ± 1060 nM

Same assay, conditions: Homo sapiens, BT-474, 120 h, read-out: Cell viability assay EC50

SMILES	EC50
CC(C)NC[C@@H](C(=O)N1CCN(c2ncnc3c2[C@H](C)C[C@H]3O)CC1)c1ccc(Cl)cc1 [Ipatasertib, reference compound]	2370 ± 745 nM
C=CC(=O)Nc1ccc2[nH]c(=O)n(C3CCN(Cc4ccc(-c5nc6cc[nH]c(=O)c6cc5-c5ccccc5)cc4)CC3)c2c1 [compound 1, borussertib]	373 ± 54 nM

Tested on: not listed separately
Experiment: in vitro
Settings: human, microsomes
Description: as §14, §15, §16, §17

SMILES	half-life at 1 h, 3 µM	microsomal CLint at 3 µM
C=CC(=O)Nc1cc2c(cc1Cl)[nH]c(=O)n2C1CCN(Cc2ccc(-c3nc4cc[nH]c(=O)c4cc3-c3ccccc3)cc2)CC1 [24a]	1.45 h	5 µL/min/mg

Tested on: KU-19-19
Experiment: Cell viability assay (CellTiter-Glo)
Format: cell-based
Settings: Homo sapiens, 120 h; KU-19-19 (bladder), day 5; read-out: Cell viability assay EC50
Description: Cell Culture and Viability Assay
as §1, §2, §3, §4, §5, §6, §7, §8, §9, §10, §11, §12, §13

SMILES	EC50
C=CC(=O)Nc1cc2c(cc1Cl)[nH]c(=O)n2C1CCN(Cc2ccc(-c3nc4cc[nH]c(=O)c4cc3-c3ccccc3)cc2)CC1 [24a]	2310 ± 908 nM
COc1cccc2c1C(=O)c1c(O)c3c(c(O)c1C2=O)C[C@@](O)(C(=O)CO)C[C@@H]3O[C@H]1C[C@H](N)[C@H](O)[C@H](C)O1 [Doxorubicin, reference compound]	72 ± 8 nM
NC1(c2ccc(-c3nc4ccn5c(=O)[nH]nc5c4cc3-c3ccccc3)cc2)CCC1 [MK-2206, reference compound]	7050 ± 421 nM

Same assay, conditions: Homo sapiens, KU-19-19, 120 h, read-out: Cell viability assay EC50

SMILES	EC50
C=CC(=O)Nc1ccc2[nH]c(=O)n(C3CCN(Cc4ccc(-c5nc6cc[nH]c(=O)c6cc5-c5ccccc5)cc4)CC3)c2c1 [compound 1, borussertib]	7770 ± 641 nM

Reference: article PMC6430017, “Structural and chemical insights into the covalent-allosteric inhibition of the protein kinase Akt” (Chemical Science, 2019)
